System: M. tuberculosis H37Rv growth inhibition
Test: M. tuberculosis H37Rv growth inhibitors, H37Rv strain (AID 1626)
Conditions: for IC90: measured here: IC90 against H37Rv; for CC50: measured here: Vero cell cytotoxicity

| SMILES | IC50 | IC90 | CC50 |
| --- | --- | --- | --- |
| CCn1c(COc2cccc3ccccc23)nnc1SCC(=O)OC1CCCCC1 | 4.04 µM | 14.1 µM |  |
| O=C(CSCC(=O)NC1CC1)Nc1ccc2ccccc2c1 | 5.37 µM | > 100 µM |  |
| Clc1ccc(-[n+]2c(-c3cccc(Br)c3)[nH]c3nc4ccccc4nc32)cc1 |  | > 100 µM | > 40 µM |
| O=c1c([N+](=O)[O-])cc(C(F)(F)F)cn1Cc1cccc(Cl)c1 | 8.56 µM | 22.2 µM |  |
| O=[N+]([O-])c1cc(CN2CCN(c3cccc(C(F)(F)F)c3)CC2)c2cccnc2c1O | 13.2 µM | > 100 µM | 1.49 µM |
| Nc1[nH]n2c(=O)c3c(nc2c1N=Nc1ccc(Cl)cc1)CCCC3 | 10.7 µM | 21.5 µM | 25.4 µM |
| CCCCNC(=O)COC(=O)c1cc(F)c(F)cc1Cl | 6.16 µM | > 100 µM |  |
| Cc1ccc(NC(=O)c2nc[nH]c2C(=O)N[C@@H](C)c2ccccc2)cc1 | 2.16 µM | 6.42 µM | > 40 µM |
| O=C(/C=C/c1ccc(Cl)cc1Cl)N1CCN(c2ccc([N+](=O)[O-])c(N3CCOCC3)c2)CC1 |  |  | > 40 µM |
| O=C(OCC#CCSc1nnc(-c2ccc([N+](=O)[O-])cc2)o1)c1cccs1 | < 0.195 µM | 1.3 µM |  |
| COc1ccc(C)cc1N=Nc1ccc(O)c2ncccc12 | 31.8 µM | > 100 µM | 2.01 µM |
| CCOc1ccc(N2CCc3c(C)nc(SC)nc32)cc1 | < 0.195 µM | 40.3 µM | 27.1 µM |
| O=c1[nH][nH]c(-c2ccccc2O)c1C(C[N+](=O)[O-])c1ccc(Br)cc1 (stereo not drawn) | 11.2 µM | 24.5 µM | 18.2 µM |
| O=c1oc2ccccc2nc1/C=C(\O)c1ccccc1 | 6.59 µM | > 100 µM |  |
| COc1ccc(N2CSC3=C(C#N)C(c4cccc(OC)c4OC)CC(=O)N3C2)cc1 (stereo not drawn) | 54.7 µM | > 100 µM |  |
| COc1ccc(NC(=O)N2CCN(c3nc(-c4cccc(OC)c4)cs3)CC2)cc1 | 9.47 µM | > 100 µM | > 40 µM |
| CCOC(=O)Cc1csc(NC(=O)c2c(O)c3ccccc3n(CCC(C)C)c2=O)n1 | < 0.195 µM | 0.224 µM | 8.48 µM |
| CC(C)Nc1cc(C(F)(F)F)nc(-c2ccccn2)n1 | 5.17 µM | > 100 µM |  |
| CCn1ccnc1CN(C)Cc1cn(-c2ccc(C)cc2)nc1-c1ccc(F)cc1 | 5.81 µM | 6.72 µM | > 40 µM |
| CCn1c(CNc2ccccc2Cl)nnc1SCC(=O)OC1CCCCC1 | 1.63 µM | 3.2 µM |  |
| Cc1ccc(NC2=CC(=O)C(=O)c3ccccc32)cc1 | 1.49 µM | 1.94 µM | 6.94 µM |

| SMILES | IC50 | IC90 | CC50 |
| --- | --- | --- | --- |
| Fc1ccc(C(c2ccc(F)cc2)N2CCN(C/C=C/c3ccccc3)CC2)cc1 | 7.94 µM | 10.1 µM | > 40 µM |
| CCc1ccc(C(=O)CSC2=C(C#N)C(c3ccco3)C(C(C)=O)=C(C)N2)cc1 (stereo not drawn) | 7.81 µM | 23.3 µM | > 40 µM |
| O=C(Cc1ccc([N+](=O)[O-])cc1)Nc1cc(C(F)(F)F)cc(C(F)(F)F)c1 | 0.369 µM | > 100 µM | 20.8 µM |
| O=C(Nc1ccc(CSc2ccccc2)cc1)c1ccc(CN2CCOCC2)cc1 | 32.2 µM | > 100 µM | > 40 µM |
| COc1ccc(NC(=O)c2nc[nH]c2C(=O)N[C@@H](C)c2ccccc2)cc1 | 5.7 µM | 22.4 µM | > 40 µM |
| CC(C)c1ccc(NC(=O)NC2CCCCC2)cc1 | 6.27 µM | > 100 µM |  |
| C=CCNc1cc(C(F)(F)F)nc(-c2ccccn2)n1 | 4.87 µM | 16.3 µM |  |
| O=C(CCSc1ccccc1)Nc1nnc(-c2ccccc2)o1 |  | > 100 µM |  |
| CCOC(=O)CNC(=O)CSc1ncnc2c1nnn2-c1ccc(F)cc1 |  | > 100 µM |  |
| CCOCCOC(=O)COc1ccc2c(-c3ccccc3)cc(=O)oc2c1 | 1.28 µM | 4.32 µM |  |
| c1cnc2c(c1)ccc1cccnc12 | 4.46 µM | 8.17 µM | 3.98 µM |
| O=C(Nc1nnc(C2=COCCO2)o1)c1ccc(Cc2ccccc2)cc1 | 4.49 µM | 10.6 µM | > 40 µM |
| Cc1cccc(NC(=O)/C=C/c2ccc([N+](=O)[O-])s2)c1 | < 0.391 µM | < 0.391 µM | 6.99 µM |
| COc1ccc(CNCCC(c2ccc(F)cc2)c2ccc(OC(C)C)cc2)cc1OC (stereo not drawn) | 15.2 µM | 20.8 µM | 15.4 µM |
| CCOC(=O)c1ccc(N=CC2=C(O)CC(C)(C)CC2=O)cc1 | 1.35 µM | > 100 µM |  |
| Brc1c(-c2ccc3c(c2)OCO3)nc2ncccn12 | 2.23 µM | 7.15 µM | > 40 µM |
| CCOc1ccc(NC(=O)CCCc2cc(-c3ccc(OCC)cc3)on2)cc1 | 47.1 µM | > 100 µM |  |
| COc1ccc(-c2ccc([C@H]3[C@@H]4C=CCC[C@@]4(C)C(=O)N3Cc3ccccc3)c(F)c2)cc1OC | 13 µM | > 100 µM | 39.2 µM |
| Cc1ccc(-c2nn(-c3ccccc3)cc2NC(=O)CCl)cc1 | 29.6 µM | > 100 µM | 27.1 µM |
| c1ccc(-c2nc(N3CCOCC3)c3ccccc3n2)nc1 | 5.22 µM | 14.5 µM | > 40 µM |
| Cc1ccsc1C(=O)Nc1nc2ccccc2[nH]1 | 20.4 µM | > 100 µM | 25.3 µM |

| SMILES | IC50 | IC90 | CC50 |
| --- | --- | --- | --- |
| CC(C)c1ccc(NC(=O)c2snc3ccc(Cl)cc23)cc1 | 3.89 µM | > 100 µM | > 40 µM |
| N#C/C(=C/c1ccc(N2CCCCC2)o1)C(=O)NCCc1c[nH]c2ccccc12 | 41 µM | > 100 µM | > 40 µM |
| N=c1c2c(-c3ccccc3)c(-c3ccccc3)n(Cc3ccco3)c2ncn1Cc1ccccc1 | 2.75 µM | 3.17 µM | 6.49 µM |
| CSc1ccc2c(c1)C(N1CCN(C)CC1)Cc1ccccc1S2 (stereo not drawn) | 8.54 µM | 10.9 µM | 20.9 µM |
| Cc1ccccc1OCC(=O)Nc1nc2ccccc2[nH]1 | 4.82 µM | 16.2 µM |  |
| COc1cc(CNCCc2ccccc2)cc(Cl)c1OCc1ccccc1 | 8.64 µM | 11 µM | 27.8 µM |
| CCOC(=O)c1ccc(N2CSC3=C(C#N)C(c4ccc(OC)cc4OC)CC(=O)N3C2)cc1 (stereo not drawn) | 41.8 µM | > 100 µM |  |
| CC(C)C(=O)N1CCN(c2ccc(NC(=O)c3ccc4c(c3)OCCO4)cc2Cl)CC1 |  | > 100 µM | 19.8 µM |
| CC(NC(=O)c1ccc([N+](=O)[O-])cc1[N+](=O)[O-])c1ccc(-c2ccccc2)cc1 (stereo not drawn) | 2.51 µM | > 100 µM | > 40 µM |
| N=C1SCC(=O)N1c1ncc(Cc2cccc(Cl)c2)s1 | < 0.195 µM | 4.92 µM | > 40 µM |
| Cc1cc(NC(=O)c2c(F)cccc2Cl)n(-c2nc3ccccc3[nH]2)n1 | 16.5 µM | 25.9 µM | > 40 µM |
| c1ccc(CNc2nc(CN3CCOCC3)nc3scc(-c4ccccc4)c23)cc1 | 13 µM | 21.9 µM |  |
| C/C(=C\C(=O)c1ccc(C)o1)Nc1ccc2c(c1)OCO2 |  | > 100 µM |  |
| c1ccc(CN2CCN(c3nc(NCc4ccco4)c4ccccc4n3)CC2)cc1 | 7.96 µM | 10.3 µM | 35.1 µM |
| CCn1c([N+](=O)[O-])nc2c1c(=O)[nH]c(=O)n2C | 0.823 µM | 1.64 µM | 11.6 µM |
| Nc1ccc(C(=O)O)c(O)c1 | < 0.195 µM | > 100 µM |  |
| CSc1ccc(/C=C/C(=O)c2ccc(O)cc2)cc1 | 9.87 µM | 13.7 µM | 30.7 µM |
| c1ccc(OCc2nn3c(-c4n[nH]c5c4CCC5)nnc3s2)cc1 | 1.23 µM | 6.8 µM |  |
| COc1ccc(N/C=C2\CCc3ccccc3C2=O)cc1 |  | > 100 µM | > 40 µM |
| O=C(NCCCN1CCOCC1)c1ccc([N+](=O)[O-])cc1[N+](=O)[O-] | 6.25 µM | > 100 µM |  |
| O=C(Nc1ccc(Oc2ccccc2)cc1)C1CCCO1 (stereo not drawn) | 34.2 µM | > 100 µM |  |

| SMILES | IC50 | IC90 | CC50 |
| --- | --- | --- | --- |
| COc1ccc(-c2nnc(NC(=O)c3cc(Cl)ccc3Cl)o2)cc1 | 1.2 µM | > 100 µM | 38.8 µM |
| COc1ccc(CCNC(=O)c2ccc(CN3CCC(Cc4ccccc4)CC3)cc2)cc1 |  | > 100 µM | > 40 µM |
| CCOC(=O)c1cnc(-n2nc(C)cc2C)nc1Nc1ccc(OC)cc1 | 0.641 µM | 1.27 µM |  |
| O=C(Nc1ccc(Cl)cc1)Nc1csc([N+](=O)[O-])c1 | 79.1 µM | > 100 µM |  |
| Cc1cc(C)c2c(CN3CCN(Cc4ccc5c(c4)OCO5)CC3)cc(=O)oc2c1C | 19 µM | > 100 µM |  |
| CCOC(=O)CSc1nnc(-c2ccc(Cl)cc2Cl)o1 | < 0.391 µM | 9.47 µM |  |
| CCOc1ccc(N2C(=O)c3ccc(C(=O)OCC(=O)N(CC)C4CCS(=O)(=O)C4)cc3C2=O)cc1 (stereo not drawn) |  | > 100 µM |  |
| COCCCNC(=O)COC(=O)c1ccc(-c2nc3ccccc3s2)s1 | 14.4 µM | 26.9 µM | > 40 µM |
| COC(=O)CC(=O)N1CCN(c2ccc(Cl)c(Cl)c2)CC1 | 11.9 µM | 25.2 µM |  |
| Cc1ccc(-c2csc3ncnc(Oc4ccc5c(C)cc(=O)oc5c4)c23)cc1 | < 0.195 µM | > 100 µM | > 40 µM |
| CCOc1ccc(NC(=O)CN2CCN(C3c4ccccc4-c4ccccc43)CC2)cc1 | 22.2 µM | > 100 µM | > 40 µM |
| CC(=O)c1ccccc1OCC(O)CN1CCN(C(c2ccccc2)c2ccccc2)CC1 (stereo not drawn) | 7.75 µM | 32.6 µM | 33.1 µM |
| CCCCCOC(=O)c1ccc(OC(=O)c2cncc(Br)c2)cc1 | 11.6 µM | > 100 µM |  |
| Cc1[nH]c2ccccc2c1C(=O)COC(=O)c1ccc([N+](=O)[O-])s1 |  |  | 31.8 µM |
| Cc1nc([N+](=O)[O-])c(Br)n1Cc1ccc(Cl)c(Cl)c1 | 4.08 µM | 7.03 µM | 12.5 µM |
| Oc1c(Cl)cc(Cl)c2cccnc12 | 0.779 µM | 0.858 µM | 11.9 µM |
| O=C1c2ccc3c4c(ccc(c24)C(=O)N1CCCCO)C(=O)N(CCCCO)C3=O | 7.04 µM | 12.9 µM | 5.2 µM |
| Cc1ccc(C(=O)Oc2oc(-c3ccccc3)nc2C=Nc2ccc(N(C)C)cc2)cc1 |  |  | > 40 µM |
